Experimental data as given in patent US20260297081A1, “COMPOUNDS AND METHODS OF TREATING CANCERS” (Cullgen Inc., priority 2023, published 2026).

Target: CDK4 (Homo sapiens, UniProt P11802+Q16531)
Assay: CDK4 percentage degradation in Calu-1 cells (Table 6)
Assay type: cell-based
Parameters: Cells that express cyclin D1-3 and CDK4/6 proteins were treated with heterobifunctional compounds; endogenous in cells; host or cells: Calu-1
Conditions: 16 hours; for inhibition at 0.04 µM: 40 nM; for inhibition at 0.2 µM: 200 nM
Procedure, shortened: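 Percentage degradation of Cyclin D1 and CDK4 derived from densitometry of ECL Western blots on lysates of Calu-1 cells. Treatment was 16 h with compound at either 40 nM or 200 nM.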

CDK4, sequence (P11802 2-303 limits assumed): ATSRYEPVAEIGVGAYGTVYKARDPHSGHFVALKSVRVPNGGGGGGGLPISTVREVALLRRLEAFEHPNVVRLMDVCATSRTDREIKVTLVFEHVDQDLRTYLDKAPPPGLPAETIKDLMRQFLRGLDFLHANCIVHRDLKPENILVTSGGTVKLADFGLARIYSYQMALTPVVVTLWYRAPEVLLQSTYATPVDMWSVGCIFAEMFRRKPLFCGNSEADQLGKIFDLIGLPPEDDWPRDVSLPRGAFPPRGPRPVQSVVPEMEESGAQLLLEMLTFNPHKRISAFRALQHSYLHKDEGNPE
CDK4, sequence (P24385 whole entry partner): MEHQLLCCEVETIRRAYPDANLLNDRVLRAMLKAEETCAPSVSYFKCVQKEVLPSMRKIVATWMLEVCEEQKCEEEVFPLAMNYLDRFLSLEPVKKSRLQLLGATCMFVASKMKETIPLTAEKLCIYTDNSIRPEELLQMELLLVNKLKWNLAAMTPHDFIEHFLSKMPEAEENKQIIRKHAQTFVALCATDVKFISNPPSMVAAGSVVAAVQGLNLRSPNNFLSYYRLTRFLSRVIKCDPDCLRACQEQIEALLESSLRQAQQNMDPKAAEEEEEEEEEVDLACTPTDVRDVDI
CDK4, sequence (Q16531 2-1140 limits assumed): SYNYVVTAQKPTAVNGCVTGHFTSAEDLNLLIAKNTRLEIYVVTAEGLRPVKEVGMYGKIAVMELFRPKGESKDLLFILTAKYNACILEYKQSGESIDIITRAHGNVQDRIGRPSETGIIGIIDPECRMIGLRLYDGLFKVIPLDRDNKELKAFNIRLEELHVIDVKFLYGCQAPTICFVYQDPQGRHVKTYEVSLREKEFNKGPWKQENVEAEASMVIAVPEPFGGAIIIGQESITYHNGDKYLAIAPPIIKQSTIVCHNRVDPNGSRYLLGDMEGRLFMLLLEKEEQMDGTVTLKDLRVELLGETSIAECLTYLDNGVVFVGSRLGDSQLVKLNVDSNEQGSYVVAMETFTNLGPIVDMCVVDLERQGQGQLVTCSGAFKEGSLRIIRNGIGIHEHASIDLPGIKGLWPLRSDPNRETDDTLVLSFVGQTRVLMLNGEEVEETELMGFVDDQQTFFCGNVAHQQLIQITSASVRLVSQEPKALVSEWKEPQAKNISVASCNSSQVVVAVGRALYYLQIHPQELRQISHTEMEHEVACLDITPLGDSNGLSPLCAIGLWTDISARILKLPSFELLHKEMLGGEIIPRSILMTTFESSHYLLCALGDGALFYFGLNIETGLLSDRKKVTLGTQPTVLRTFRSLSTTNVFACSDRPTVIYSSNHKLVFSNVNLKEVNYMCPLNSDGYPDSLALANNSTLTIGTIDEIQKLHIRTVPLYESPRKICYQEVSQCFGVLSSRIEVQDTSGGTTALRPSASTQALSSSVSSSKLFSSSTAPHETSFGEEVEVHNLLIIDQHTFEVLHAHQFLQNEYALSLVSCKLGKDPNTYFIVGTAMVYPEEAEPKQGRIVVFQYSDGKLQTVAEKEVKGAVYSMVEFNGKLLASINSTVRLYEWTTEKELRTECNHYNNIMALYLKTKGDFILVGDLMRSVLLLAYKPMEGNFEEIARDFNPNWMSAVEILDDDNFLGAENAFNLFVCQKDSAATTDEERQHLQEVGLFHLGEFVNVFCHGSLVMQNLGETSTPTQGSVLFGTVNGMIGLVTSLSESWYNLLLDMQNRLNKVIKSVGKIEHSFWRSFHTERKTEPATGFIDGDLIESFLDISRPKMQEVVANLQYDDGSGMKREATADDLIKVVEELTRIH

Compound	inhibition at 0.04 µM [%]	inhibition at 0.2 µM [%]
CNc1ccc(C(=O)Nc2cc(C3CC3)on2)c(NC2CC3(CC(NC(=O)CN4CCN(c5ccc(Nc6ncc7c(C)c(C(C)=O)c(=O)n(C8CCCC8)c7n6)nc5)CC4)C3)C2)n1 (centres unmarked) [CPD-215, 2-((6-(2-(4-(6-((6-acetyl-8-cyclopentyl-5-methyl-7-oxo-7,8-dihydropyrido[2,3-d]pyrimidin-2-yl)amino)pyridin-3-yl)piperazin-1-yl)acetamido)spiro[3.3]heptan-2-yl)amino)-N-(5-cyclopropylisoxazol-3-yl)-6-(methylamino)nicotinamide]	< 30	< 30
CNc1ccc(C(=O)Nc2ccc(N(C)C)nn2)c(NC2CC3(C2)CC(OC(C)(C)C(=O)N2CCN(c4ccc(Nc5ncc6c(C)c(C(C)=O)c(=O)n(C7CCCC7)c6n5)nc4)CC2)C3)n1 (centres unmarked) [CPD-216, 2-((6-((1-(4-(6-((6-acetyl-8-cyclopentyl-5-methyl-7-oxo-7,8-dihydropyrido[2,3-d]pyrimidin-2-yl)amino)pyridin-3-yl)piperazin-1-yl)-2-methyl-1-oxopropan-2-yl)oxy)spiro[3.3]heptan-2-yl)amino)-N-(6-(dimethylamino)pyridazin-3-yl)-6-(methylamino)nicotinamide]	30 to 50	50 to 80
CNc1ccc(C(=O)Nc2ccc(OC)c(C)n2)c(NC2CC3(CC(NC(=O)CN4CCN(c5ccc(Nc6ncc7c(C)c(C(C)=O)c(=O)n(C8CCCC8)c7n6)nc5)CC4)C3)C2)n1 (centres unmarked) [CPD-220, 2-((6-(2-(4-(6-((6-acetyl-8-cyclopentyl-5-methyl-7-oxo-7,8-dihydropyrido[2,3-d]pyrimidin-2-yl)amino)pyridin-3-yl)piperazin-1-yl)acetamido)spiro[3.3]heptan-2-yl)amino)-N-(5-methoxy-6-methylpyridin-2-yl)-6-(methylamino)nicotinamide]	30 to 50	50 to 80
[2H]C([2H])([2H])Nc1ccc(C(=O)Nc2cccc(C)n2)c(NC2CC3(C2)CC(OC(C)(C)C(=O)N2CCN(c4ccc(Nc5ncc6c(C)c(C(C)=O)c(=O)n(C7CCCC7)c6n5)nc4)CC2)C3)n1 (centres unmarked) [CPD-226, 2-((6-((1-(4-(6-((6-acetyl-8-cyclopentyl-5-methyl-7-oxo-7,8-dihydropyrido[2,3-d]pyrimidin-2-yl)amino)pyridin-3-yl)piperazin-1-yl)-2-methyl-1-oxopropan-2-yl)oxy)spiro[3.3]heptan-2-yl)amino)-6-((methyl-d3)amino)-N-(6-methylpyridin-2-yl)nicotinamide]	< 30	30 to 50
CNc1ccc(C(=O)Nc2cc(C(C)C)on2)c(NC2CC3(CC(NC(=O)CN4CCN(c5ccc(Nc6ncc7c(C)c(C(C)=O)c(=O)n(C8CCCC8)c7n6)nc5)CC4)C3)C2)n1 (centres unmarked) [CPD-227, 2-((6-(2-(4-(6-((6-acetyl-8-cyclopentyl-5-methyl-7-oxo-7,8-dihydropyrido[2,3-d]pyrimidin-2-yl)amino)pyridin-3-yl)piperazin-1-yl)acetamido)spiro[3.3]heptan-2-yl)amino)-N-(5-isopropylisoxazol-3-yl)-6-(methylamino)nicotinamide]	< 30	< 30
CNc1ccc(C(=O)Nc2cn(C(C)C)c(C)n2)c(NC2CC3(CC(NC(=O)CN4CCN(c5ccc(Nc6ncc7c(C)c(C(C)=O)c(=O)n(C8CCCC8)c7n6)nc5)CC4)C3)C2)n1 (centres unmarked) [CPD-238, 2-((6-(2-(4-(6-((6-acetyl-8-cyclopentyl-5-methyl-7-oxo-7,8-dihydropyrido[2,3-d]pyrimidin-2-yl)amino)pyridin-3-yl)piperazin-1-yl)acetamido)spiro[3.3]heptan-2-yl)amino)-N-(1-isopropyl-2-methyl-1H-imidazol-4-yl)-6-(methylamino)nicotinamide]	< 30	< 30
[2H]C([2H])([2H])Nc1ccc(C(=O)Nc2ccc(F)c(C3CC3)n2)c(NC2CC3(CC(NC(=O)CN4CCN(c5ccc(Nc6ncc7c(C)c(C(C)=O)c(=O)n(C8CCCC8)c7n6)nc5)CC4)C3)C2)n1 (centres unmarked) [CPD-239, 2-((6-(2-(4-(6-((6-acetyl-8-cyclopentyl-5-methyl-7-oxo-7,8-dihydropyrido[2,3-d]pyrimidin-2-yl)amino)pyridin-3-yl)piperazin-1-yl)acetamido)spiro[3.3]heptan-2-yl)amino)-N-(6-cyclopropyl-5-fluoropyridin-2-yl)-6-((methyl-da)amino)nicotinamide]	30 to 50	50 to 80

The next lines start with the values.

inhibition at 0.04 µM [%]	inhibition at 0.2 µM [%]	Compound
30 to 50	50 to 80	[2H]C([2H])([2H])Nc1ccc(C(=O)Nc2cc(C)on2)c(NC2CC3(CC(NC(=O)CN4CCN(c5ccc(Nc6ncc7c(C)c(C(C)=O)c(=O)n(C8CCCC8)c7n6)nc5)CC4)C3)C2)n1 (centres unmarked) [CPD-225, 2-((6-(2-(4-(6-((6-acetyl-8-cyclopentyl-5-methyl-7-oxo-7,8-dihydropyrido[2,3-d]pyrimidin-2-yl)amino)pyridin-3-yl)piperazin-1-yl)acetamido)spiro[3.3]heptan-2-yl)amino)-6-((methyl-d3)amino)-N-(5-methylisoxazol-3-yl)nicotinamide]
< 30	30 to 50	CNc1ccc(C(=O)Nc2cc(C)n(C)n2)c(NC2CCN(C(=O)CN3CCN(c4ccc(Nc5ncc6c(C)c(C(C)=O)c(=O)n(C7CCCC7)c6n5)nc4)CC3)CC2)n1 [CPD-228, 2-((1-(2-(4-(6-((6-acetyl-8-cyclopentyl-5-methyl-7-oxo-7,8-dihydropyrido[2,3-d]pyrimidin-2-yl)amino)pyridin-3-yl)piperazin-1-yl)acetyl)piperidin-4-yl)amino)-N-(1,5-dimethyl-1H-pyrazol-3-yl)-6-(methylamino)nicotinamide]
30 to 50	50 to 80	CNc1ccc(C(=O)Nc2cc(C)on2)c(NC2CCN(C(=O)CN3CCN(c4ccc(Nc5ncc6c(C)c(C(C)=O)c(=O)n(C7CCCC7)c6n5)nc4)CC3)CC2)n1 [CPD-229, 2-((1-(2-(4-(6-((6-acetyl-8-cyclopentyl-5-methyl-7-oxo-7,8-dihydropyrido[2,3-d]pyrimidin-2-yl)amino)pyridin-3-yl)piperazin-1-yl)acetyl)piperidin-4-yl)amino)-6-(methylamino)-N-(5-methylisoxazol-3-yl)nicotinamide]
< 30	30 to 50	[2H]C([2H])([2H])Nc1ccc(C(=O)Nc2cc(C)n(C)n2)c(NC2CCN(C(=O)CN3CCN(c4ccc(Nc5ncc6c(C)c(C(C)=O)c(=O)n(C7CCCC7)c6n5)nc4)CC3)CC2)n1 [CPD-230, 2-((1-(2-(4-(6-((6-acetyl-8-cyclopentyl-5-methyl-7-oxo-7,8-dihydropyrido[2,3-d]pyrimidin-2-yl)amino)pyridin-3-yl)piperazin-1-yl)acetyl)piperidin-4-yl)amino)-N-(1,5-dimethyl-1H-pyrazol-3-yl)-6-((methyl-d3)amino)nicotinamide]
30 to 50	50 to 80	[2H]C([2H])([2H])Nc1ccc(C(=O)Nc2cc(C)on2)c(NC2CCN(C(=O)CN3CCN(c4ccc(Nc5ncc6c(C)c(C(C)=O)c(=O)n(C7CCCC7)c6n5)nc4)CC3)CC2)n1 [CPD-231, 2-((1-(2-(4-(6-((6-acetyl-8-cyclopentyl-5-methyl-7-oxo-7,8-dihydropyrido[2,3-d]pyrimidin-2-yl)amino)pyridin-3-yl)piperazin-1-yl)acetyl)piperidin-4-yl)amino)-6-((methyl-d3)amino)-N-(5-methylisoxazol-3-yl)nicotinamide]
< 30	30 to 50	[2H]C([2H])([2H])Nc1ccc(C(=O)Nc2cc(C)n(C)n2)c(NC2CN(C(=O)C(F)(F)CN3CCN(c4ccc(Nc5ncc6c(C)c(C(C)=O)c(=O)n(C7CCCC7)c6n5)nc4)CC3)C2)n1 [CPD-233, 2-((1-(3-(4-(6-((6-acetyl-8-cyclopentyl-5-methyl-7-oxo-7,8-dihydropyrido[2,3-d]pyrimidin-2-yl)amino)pyridin-3-yl)piperazin-1-yl)-2,2-difluoropropanoyl)azetidin-3-yl)amino)-N-(1,5-dimethyl-1H-pyrazol-3-yl)-6-((methyl-d3)amino)nicotinamide]
< 30	< 30	[2H]C([2H])([2H])Nc1ccc(C(=O)Nc2cc(C)on2)c(NC2CN(C(=O)C(F)(F)CN3CCN(c4ccc(Nc5ncc6c(C)c(C(C)=O)c(=O)n(C7CCCC7)c6n5)nc4)CC3)C2)n1 [CPD-234, 2-((1-(3-(4-(6-((6-acetyl-8-cyclopentyl-5-methyl-7-oxo-7,8-dihydropyrido[2,3-d]pyrimidin-2-yl)amino)pyridin-3-yl)piperazin-1-yl)-2,2-difluoropropanoyl)azetidin-3-yl)amino)-6-((methyl-d3)amino)-N-(5-methylisoxazol-3methyl-yl)nicotinamide]
< 30	50 to 80	CNc1ccc(C(=O)Nc2ccc(N(C)C)nn2)c(NC2CCC3(C2)CN(C(=O)CN2CCN(c4ccc(Nc5ncc6c(C)c(C(C)=O)c(=O)n(C7CCCC7)c6n5)nc4)CC2)C3)n1 (centres unmarked) [CPD-235, 2-((2-(2-(4-(6-((6-acetyl-8-cyclopentyl-5-methyl-7-oxo-7,8-dihydropyrido[2,3-d]pyrimidin-2-yl)amino)pyridin-3-yl)piperazin-1-yl)acetyl)-2-azaspiro[3.4]octan-6-yl)amino)-N-(6-(dimethylamino)pyridazin-3-yl)-6-(methylamino)nicotinamide]
30 to 50	50 to 80	[2H]C([2H])([2H])Nc1ccc(C(=O)Nc2cn(C)c(C3CC3)n2)c(NC2CCN(C(=O)CN3CCN(c4ccc(Nc5ncc6c(C)c(C(C)=O)c(=O)n(C7CCCC7)c6n5)nc4)CC3)CC2)n1 [CPD-236, 2-((1-(2-(4-(6-((6-acetyl-8-cyclopentyl-5-methyl-7-oxo-7,8-dihydropyrido[2,3-d]pyrimidin-2-yl)amino)pyridin-3-yl)piperazin-1-yl)acetyl)piperidin-4-yl)amino)-N-(2-cyclopropyl-1-methyl-1H-imidazol-4-yl)-6-((methyl-d3)amino)nicotinamide]
